For the assay, the system named is Human immunodeficiency virus 1. Briefly: Antiviral activity against HIV1 Ba-L infected in HOS cells assessed as inhibition of viral infection. In kind it is functional, organism-based. The note with it: Human immunodeficiency virus 1, Ba-L.

The term IC50 denotes the concentration at which inhibition is half-maximal. `Cc1nc2ccccc2n1[C@H]1C[C@H]2CC[C@@H](C1)N2CC[C@]1(c2ccccc2)CC[C@H](NC(=O)c2ccc(F)c(S(N)(=O)=O)c2)CC1`: the IC50 stood at 480 nM. In the case of `Cc1ccc(S(N)(=O)=O)c(C)c1C(=O)N[C@H]1CC[C@@](CCN2[C@@H]3CC[C@H]2C[C@@H](n2c(C)nc4ccccc42)C3)(c2ccccc2)CC1` it was 2550 nM. Take `CNS(=O)(=O)c1cc(C(=O)N[C@H]2CC[C@@H](CN3[C@@H]4CC[C@H]3C[C@@H](n3c(C)nc5ccccc53)C4)CC2)c(Cl)cc1F`: the IC50 was over 20000 nM. With `Cc1nc2ccccc2n1[C@H]1C[C@H]2CC[C@@H](C1)N2CC[C@]1(c2ccccc2)CC[C@H](NC(=O)c2cc(S(=O)(=O)NC(C)C)c(Cl)cc2F)CC1` the figure was 590 nM; with `Cc1nc2ccccc2n1[C@H]1C[C@H]2CC[C@@H](C1)N2CC[C@]1(c2ccccc2)CC[C@H](NC(=O)c2ccc(Cl)c(S(N)(=O)=O)c2)CC1`, 58 nM. As to `Cc1ccnc(C)c1C(=O)N[C@H]1CC[C@](CCCN2[C@@H]3CC[C@H]2C[C@@H](n2c(C)nc4ccccc42)C3)(c2ccccc2)CC1`, the IC50 came to 2190 nM.

Regarding `Cc1nc2ccccc2n1[C@H]1C[C@H]2CC[C@@H](C1)N2CC[C@]1(c2ccccc2)CC[C@@H](NC(=O)c2ccc(Cl)c(S(N)(=O)=O)c2)CC1`, the IC50 was determined as 1630 nM. In the case of `Cc1nc2ccccc2n1[C@H]1C[C@H]2CC[C@@H](C1)N2[C@]1(C)CC[C@H](NC(=O)c2c(Cl)ccc(S(N)(=O)=O)c2Cl)CC1` it was 20000 nM.

Take `Cc1nc2ccccc2n1[C@H]1C[C@H]2CC[C@@H](C1)N2[C@]1(C)CC[C@H](NC(=O)c2ccc(Cl)c(S(N)(=O)=O)c2)CC1`: the IC50 turned out to be 870 nM. Turning to `Cc1nc2ccccc2n1[C@H]1C[C@H]2CC[C@@H](C1)N2CCC[C@]1(c2ccccc2)CC[C@H](NC(=O)c2ccc(Cl)c(S(N)(=O)=O)c2)CC1`, the IC50 came to 380 nM.

With `Cc1nc2ccccc2n1[C@H]1C[C@H]2CC[C@@H](C1)N2CC[C@]1(c2ccccc2)CC[C@H](NC(=O)c2ccc(S(N)(=O)=O)cc2F)CC1`, the IC50 turned out to be 1800 nM.

As to `Cc1nc2ccccc2n1[C@H]1C[C@H]2CC[C@@H](C1)N2C[C@H]1CC[C@@H](NC(=O)c2ccc(Cl)c(S(N)(=O)=O)c2)CC1`, the IC50 was over 20000 nM. On to `Cc1nc2ccccc2n1[C@H]1C[C@H]2CC[C@@H](C1)N2CC[C@]1(c2ccccc2)CC[C@H](NC(=O)c2cc(NS(C)(=O)=O)c(Cl)cc2F)CC1`, for which the IC50 was determined as 1480 nM. Consider `Cc1ccc(S(N)(=O)=O)c(C)c1C(=O)N[C@H]1CC[C@](CCN2[C@@H]3CC[C@H]2C[C@@H](n2c(C)nc4ccccc42)C3)(c2ccccc2)CC1`, for which the IC50 worked out at 1070 nM. With `Cc1nc2ccccc2n1[C@H]1C[C@H]2CC[C@@H](C1)N2CC[C@]1(c2ccccc2)CC[C@H](NC(=O)c2ccc(S(N)(=O)=O)cc2Cl)CC1` the figure was 230 nM; with `CNS(=O)(=O)c1cc(Cl)c(C(=O)N[C@H]2CC[C@](CCN3[C@@H]4CC[C@H]3C[C@@H](n3c(C)nc5ccccc53)C4)(c3ccccc3)CC2)cc1F`, 510 nM.

Values taken from ChEMBL document CHEMBL1155363, “4,4-Disubstituted cyclohexylamine based CCR5 chemokine receptor antagonists as anti-HIV-1 agents” (Bioorg Med Chem Lett, 2009).
